One compound from patent publication US11583529B2, “Treatment of inflammatory disorders” (Aldeyra Therapeutics, Inc., priority 2017, dated 2023) can be followed below.

The subject of this experiment is rat model of endotoxin induced uveitis. In words: Rat model of endotoxin-induced uveitis (EIU), topical or intravitreal treatment. Type of experiment: in vivo, female Lewis rats. The settings on record: for overall ophthalmic examination score: vs control (BSS) topical. Here is the method:
An in vivo study was conducted to assess the efficacy of intravitreal administration of compound I-22 in a rat model of endotoxin induced uveitis, one of the most appropriate models for the study of NIU (Smith et al., 1998) (Toxikon Study 16-04078-N1). Ocular inflammation was induced in female Lewis rats (n=10/group) by a single foot pad injection of LPS (100 μL) (Herbort et al., 1988, Graefe's Arch Clin Exp Ophthalmol. 226:553-558). Compound I-22 (5 mg/mL) was administered intravitreally into each eye (25 μg/eye), or topically to both eyes at 1, 3, 7, 10, and 17 hours post-LPS injection, within one hour of LPS administration. Balanced salt solution (BSS) served as a vehicle control. Retinal exams were performed prior to study start and six and 24 hours following LPS administration and scored using a Combined Draize and McDonald Shadduck scoring system, based on assessments of: retinal vasculopathy and retinal hemorrhage, exudate, and detachment.
Endotoxin-induced uveitis was created by a single injection of lipopolysaccharide (LPS; 100 μL) into one hind footpad. Ten (10) female Lewis rats per group received control (balanced salt solution, BSS) or test article (compound I-22) topically to both eyes at 1, 3, 7, 10, and 17 hours post-LPS injection. At each dosing time point, two drops (5 μL each, separated by approximately two minutes, for a total of 10 μL/eye/dose) were instilled into each eye of the animals. Ten female Lewis rats per group received control (BSS) or compound I-22 by a single intravitreal injection (IVT) in each eye at one hour post-LPS injection. Each eye received 5 μL of vehicle or test article.
Animals were anesthetized with isoflurane 1-3.5% for ophthalmic examinations. Both eyes of each animal were evaluated pre-dose using slit-lamp biomicroscopy, and an indirect ophthalmoscope or a surgical microscope, according to the Combined Draize and McDonald-Shadduck Scoring System, and the Ocular Posterior Segment Scoring Scale. All pupils were dilated with 1% tropicamide ophthalmic solution before ocular examination. Only rats showing no signs of eye irritation, ocular defects or preexisting corneal injury were used in the study.
Ophthalmic examinations were performed on both eyes of each animal approximately six and 24 hours following LPS administration, using slit-lamp biomicroscopy and a surgical microscope or via indirect ophthalmoscopy. Pupils were dilated with 1% Tropicamide Ophthalmic Solution before ophthalmic examinations.
Quantitative, continuous data from this study were analyzed using one-way ANOVA. Alternative or additional statistical methods were used as necessary.
In the same study, the efficacy of compound 1-5 was compared to that of compound 1-22. Compound 1-5 was topically administered topically to the eye at hours 1, 3, 7, 10, and 17, after LPS induction, or by a single intravitreal (IVT) injection one hour after LPS induction (n=10 per group), as was compound I-22. Ocular exams were performed 6 and 24 hours after LPS injection. Anterior segments were scored using a combined Draize and McDonald-Shadduck scoring system, and posterior segments were scored using 0 to 1 (vitreous, optic disc, retinal vasculature) and 0 to 4 (retinal and choroidal hemorrhage, exudation, and detachment) scales. Statistical significance from vehicle control was determined by ANOVA, followed by Tukey's post hoc test.

The mark [1] stands for this setting: intravitreal administration, vs vehicles.

The structures appear in SMILES notation. Entries after “also recorded” stand apart in the source; their conditions may differ.

With `CC(C)(O)c1cc2oc(-c3ccccc3)nc2cc1N` [Compound I-22], under “IVT, vs vehicle”, the ocular exam scores entry was “significantly improved”. Besides, the “sums of the mean retinal examination scores” value (IVT, vs vehicle controls (FIG. 2)) is reported as “significantly reduced”. For the same compound, under setting [1], the Total ocular inflammation entry is recorded as “lower”, the anterior chamber inflammation entry is “lower” and the retina-choroid inflammation entry is recorded as “lower”. Besides, the “signs of inflammation in the rat EIU model” value (overall) is listed as “reduced”. Also, the “response in the EIU model” value (overall, I-22 compared with I-5) was “slightly more positive response”. Moreover, the ophthalmic examination scores entry (single IVT injection (25 μg/eye), approximately six and 24 hours post LPS, vs control IVT) is recorded as “significantly lower”. For the same compound, for the setting “topical (TO), 6 hours and 24 hours, vs vehicle”, the ocular exam scores result is “significantly improved”. Further, for the setting “topical (TO), vs vehicle”, the “Total ocular inflammation score” value is given as “lower”, the “anterior chamber inflammation score” value was “lower” and the retina-choroid inflammation score result is “lower”. For the same compound, the “overall ophthalmic examination score” value (topical at 1, 3, 7, 10, 17 h post-LPS, approximately six hours post LPS) is recorded as “significantly lower; also recorded: statistically lower”. Besides, the “overall ophthalmic examination score” value (topical, approximately 24 hours post LPS) is reported as “significantly lower”.
